Read-outs that look alike come from different tables or passages of the source.
Molecular target: dopamine D2 receptor (Homo sapiens, UniProt P14416)
Format: binding
[1] = kPCA, room temperature, PPHT tracer, N = 2, n = 2

Chain of dopamine D2 receptor (P14416 whole entry): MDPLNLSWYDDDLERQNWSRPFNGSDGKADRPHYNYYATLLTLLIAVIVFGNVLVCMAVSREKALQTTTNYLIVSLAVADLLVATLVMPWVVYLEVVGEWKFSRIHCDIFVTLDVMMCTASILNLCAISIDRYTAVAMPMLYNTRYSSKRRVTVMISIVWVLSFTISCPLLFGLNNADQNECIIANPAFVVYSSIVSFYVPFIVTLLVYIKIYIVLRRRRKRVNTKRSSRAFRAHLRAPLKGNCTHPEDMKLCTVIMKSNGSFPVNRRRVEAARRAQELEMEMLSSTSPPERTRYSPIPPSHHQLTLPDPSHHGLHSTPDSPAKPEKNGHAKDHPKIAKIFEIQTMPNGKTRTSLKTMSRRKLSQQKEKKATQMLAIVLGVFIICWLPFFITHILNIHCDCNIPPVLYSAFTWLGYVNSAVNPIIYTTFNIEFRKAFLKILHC

Structure (SMILES)	kon [1/(M*s)]	kon [1/(M*s)] [1]
O=C(CCCN1CCC(O)(c2ccc(Br)cc2)CC1)c1ccc(F)cc1 [Bromperidol]	2.26E + 06 1/(M*s)	–
Fc1ccc(CN2CCC(Nc3ccc(C(F)(F)F)nn3)CC2)cc1F [JNJ‐37822681]	–	7.33E + 05 1/(M*s)
FC(F)(F)c1nnc(N2CCNCC2)cc1-c1ccccc1 [JNJ‐39269646]	–	4.53E + 06 1/(M*s)

Reference: paper PMC6177617 (British Journal of Pharmacology, 2018)
